Results published in patent US20070203244A1, “INHIBITORS OF MEMBRANE TYPE-1 MATRIX METALLOPROTEINASE FOR THE TREATMENT OF INSULIN-DEPENDENT DIABETES MELLITUS” (priority 2006, published 2007).

Legend:
MT1-MMP [1] = conditions: HT1080 fibrosarcoma cell line; cited from earlier work
[2] = system: CD44 shedding in IS-CD8+ cells; assay: CD44 shedding in adherent IS-CD8+ cells, Western blotting; assay type: cell-based, NOD mouse; conditions: Example 1: adherent IS-CD8+ cells on gelatin
Description: Western Blotting—IS-CD8^+ cells were surface biotinylated for 1 h at 4° C. with 0.1 mg/ml sulfo-NHS-LC-biotin (Pierce, Rockford, Ill.). Following washes to remove biotin, cells were co-incubated for 2 h with MT1-MMP-CAT in serum-free, unsupplemented Click's medium. The cells were then lysed with 50 mM N-octyl-β-D-glucopyranoside in phosphate-buffered saline supplemented with 1 mM CaCl2, 1 mM MgCl2, and protease inhibitor mixture containing phenylmethylsulfonyl fluoride (1 mM) and aprotinin, pepstatin, and leupeptin (1 μg/ml each). Biotin-labeled CD44 was captured from the cell lysate and from the medium aliquots on streptavidin-agarose beads. The captured samples were examined by Western blotting with the CD44 (clone IM7.8.1) antibody to determine the released, soluble, CD44 ectodomain in the medium samples and the residual, membrane-anchored, cellular CD44 in the cell lysates.
Western blotting—IS-CD8^+ cells were surface biotinylated for 1 hr at 4° C. with 0.1 mg/ml of sulfo-NES-LC-biotin (Pierce). Following washes to remove biotin, the labeled cells were allowed to adhere in serum-free medium to plastic coated with 2% type I collagen/gelatin for 4 h or were kept in suspension. Under these experimental conditions, the vast majority of the cells became attached to gelatin. […] The cells were then lysed with 50 mM N-octyl-β-D-glucopyranoside in PBS supplemented with 1 mM CaCl2, 1 mM MgCl2, and protease inhibitor cocktail containing phenylmethylsulfonyl fluoride (1 mM) and aprotinin, pepstatin, and leupeptin (1 μg/ml each). Biotin-labeled CD44 was captured from the cell lysate and from the medium aliquots on streptavidine-Agarose beads. The captured samples were examined by Western blotting with the CD44 (clone IM7.8.1) antibody to determine the released, soluble, CD44 ectodomain in the medium samples and the residual, membrane-anchored, cellular CD44 in the cell lysates.

CD44 = assay: Cleavage of cellular CD44 by external MT1-MMP-CAT in IS-CD8+ cells (FACS, Western blotting); assay type: cell-based, NOD mouse; conditions: GM6001 50 μM added to cells co-incubated with MT1-MMP-CAT
Description: Treatment of Cells with MT1-MMP-CAT—The catalytic domain of MT1-MMP (MT1-MMP-CAT; 3 μg) was co-incubated for 2 h at 37° C. with IS-CD8^+ cells (1×10^7 cells) in 0.2 ml of 50 mM HEPES, 10 Mm CaCl2, 0.5 mM MgCl2, 50 μM ZnCl2, and 0.01% Brij-35 buffer, pH 6.8. Where indicated, GM6001 (50 μM; Chemicon, Temecula, Calif.) was added to the samples. Following treatment, the cells were injected into the irradiated mice or used for DiI labeling, Western blotting, FACS analysis, and other analytical procedures (Savinov, A. Y., et al. (2003); Deryugina, E. I., et al. (2001); Rozanov, D. V., et al. (2001)).
Western Blotting—IS-CD8^+ cells were surface biotinylated for 1 h at 4° C. with 0.1 mg/ml sulfo-NHS-LC-biotin (Pierce, Rockford, Ill.). Following washes to remove biotin, cells were co-incubated for 2 h with MT1-MMP-CAT in serum-free, unsupplemented Click's medium. […]
Monoclonal Antibodies and FACS Analysis—IS-CD8^+ cells were stained with the MT1-MMP (Ab815; Chemicon), CD44 (clone IM7.8.1), CD3 (clone 17A2), and CD49d (clone SG31) monoclonal antibodies (all from BD Biosciences, Rockville, Md.) and the CD29 monoclonal antibody (Chemicon), followed by staining with fluorescein isothiocyanate- or phycoerythrinconjugated secondary antibody (BD Biosciences), and then analyzed on a FACScan flow cytometer (Becton Dickinson, Franklin Lakes, N.J.). […]

MT1-MMP [3] = target: T1, MT1-MMP (Mus musculus, UniProt P53690); assay: MT1-MMP-dependent MMP-2 activation in adherent IS-CD8+ cells, gelatin zymography; assay type: cell-based, NOD mouse; conditions: Example 1: adherent IS-CD8+ cells on gelatin, 4 h
T1 construct: Endogenous MT1-MMP is latent in non-adherent IS-CD8^+ cells; endogenous in cells; host or cells: IS-CD8+ T cells (TGNFC8 clone, NOD mouse), adherent to gelatin
Description: MT1-MMP-dependent MMP-2 Activation and Gelatin Zymography—IS-CD8^+ cells (1×10^6) were either allowed to adhere for 4 h in serum-free unsupplemented Click's medium to plastic coated with 2% gelatin or kept in solution. Under these experimental conditions, the vast majority of cells became attached to gelatin. In 4 h, media samples (30 μl each) were withdrawn and analyzed by gelatin zymography (Deryugina, E. I., et al. (2001)) to identify the proteolytic activity and the activation status of MMP-2 naturally synthesized by IS-CD8^+ cells. Where indicated, cells were supplemented with external purified pro-MMP-2 (20 ng). Pro-MMP-2 was isolated from a conditioned medium of p2AHT2A72 cells derived from an HT1080 fibrosarcoma cell line sequentially transfected with the E1A and MMP-2 cDNAs (Strongin, A. Y., et al. (1995)).
MT1-MMP-dependent MMP-2 activation and gelatin zymography—IS-CD8^+ cells (1×10^6) were either allowed to adhere for 4 h in serum-free unsupplemented Click's medium to the plastic coated with 2% gelatin or kept in solution. In 18 h, media samples (30 μl each) were withdrawn and analyzed by gelatin zymography (Deryugina, E. I., et al. (2001)) to identify the proteolytic activity and the activation status of MMP-2 naturally synthesized by IS-CD8^+ cells. […] Pro-MMP-2 was isolated from a conditioned medium of p2AHT2A72 cells derived from an HT1080 fibrosarcoma cell line sequentially transfected with the E1A and MMP-2 cDNAs (Strongin, A. Y., et al. (1995)).

MMP-7 [4] = target: T2, MMP-7 (Homo sapiens, UniProt P09237); conditions: read-out: EC50 against MMP-7; cited from earlier work
T2 sequence (P09237 95-267): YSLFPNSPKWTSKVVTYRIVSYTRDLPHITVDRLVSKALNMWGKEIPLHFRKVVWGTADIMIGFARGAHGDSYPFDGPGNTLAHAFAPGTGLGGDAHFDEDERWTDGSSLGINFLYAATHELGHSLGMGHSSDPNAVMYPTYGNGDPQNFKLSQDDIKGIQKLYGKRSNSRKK

[5] = system: Zucker diabetic fatty rats; conditions: cited from earlier work
MT1-MMP [6] = conditions: read-out: EC50 against MT1-MMP; cited from earlier work
MMP-9 [7] = target: T3, MMP-9 (Homo sapiens, UniProt P14780); conditions: read-out: EC50 against MMP-9; cited from earlier work
[8] = target: cell surface-associated CD44 of IS-CD8+ T cells (mouse) (UniProt P15379); assay: cell-based or functional assay
[9] = target: cell surface-associated CD44 of IS-CD8+ T cells (UniProt P15379)
MMP-9 [10] = target: T3, MMP-9; conditions: cited from earlier work
MMP-7 [11] = target: T2, MMP-7; conditions: read-out: IC50 for MMP-7 inhibition; cited from earlier work
MMP-2 = target: T4, MMP-2 (Homo sapiens, UniProt P08253); conditions: cited from earlier work
T4 sequence (P08253 110-660): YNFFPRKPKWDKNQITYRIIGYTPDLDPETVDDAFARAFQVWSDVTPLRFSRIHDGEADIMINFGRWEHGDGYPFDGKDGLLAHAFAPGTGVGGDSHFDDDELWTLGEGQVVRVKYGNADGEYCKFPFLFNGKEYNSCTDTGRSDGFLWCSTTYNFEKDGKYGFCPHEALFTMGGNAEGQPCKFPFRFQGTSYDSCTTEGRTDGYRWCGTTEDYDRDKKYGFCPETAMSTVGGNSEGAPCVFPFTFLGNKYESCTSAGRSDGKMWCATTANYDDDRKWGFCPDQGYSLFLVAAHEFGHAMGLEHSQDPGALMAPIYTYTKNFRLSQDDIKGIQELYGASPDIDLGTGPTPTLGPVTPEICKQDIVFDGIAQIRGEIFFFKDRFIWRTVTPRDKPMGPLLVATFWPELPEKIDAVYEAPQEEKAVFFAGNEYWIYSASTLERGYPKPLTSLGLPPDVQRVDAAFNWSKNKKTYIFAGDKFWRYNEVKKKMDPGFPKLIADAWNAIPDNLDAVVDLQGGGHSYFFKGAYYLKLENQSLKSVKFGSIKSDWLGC

[12] = cited from earlier work

T3 sequence (P14780 94-707, species assumed): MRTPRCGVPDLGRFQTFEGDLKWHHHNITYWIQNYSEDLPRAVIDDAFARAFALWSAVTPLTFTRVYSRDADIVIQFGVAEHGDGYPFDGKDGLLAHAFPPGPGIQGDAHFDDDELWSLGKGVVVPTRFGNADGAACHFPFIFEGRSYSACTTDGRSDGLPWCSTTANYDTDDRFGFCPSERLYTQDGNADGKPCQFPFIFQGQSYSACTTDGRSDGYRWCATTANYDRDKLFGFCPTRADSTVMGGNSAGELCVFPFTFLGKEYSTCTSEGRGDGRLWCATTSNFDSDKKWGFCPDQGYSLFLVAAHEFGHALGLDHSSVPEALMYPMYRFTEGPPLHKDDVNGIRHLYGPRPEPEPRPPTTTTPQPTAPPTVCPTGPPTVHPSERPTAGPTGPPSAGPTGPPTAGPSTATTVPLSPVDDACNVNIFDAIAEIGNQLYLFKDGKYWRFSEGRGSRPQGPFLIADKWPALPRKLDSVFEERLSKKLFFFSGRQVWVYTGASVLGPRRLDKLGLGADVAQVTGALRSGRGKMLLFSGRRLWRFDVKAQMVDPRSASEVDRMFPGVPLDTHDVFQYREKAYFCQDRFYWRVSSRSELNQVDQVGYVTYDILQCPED
cell surface-associated CD44 of IS-CD8+ T cells (mouse), sequence (P15379 23-778): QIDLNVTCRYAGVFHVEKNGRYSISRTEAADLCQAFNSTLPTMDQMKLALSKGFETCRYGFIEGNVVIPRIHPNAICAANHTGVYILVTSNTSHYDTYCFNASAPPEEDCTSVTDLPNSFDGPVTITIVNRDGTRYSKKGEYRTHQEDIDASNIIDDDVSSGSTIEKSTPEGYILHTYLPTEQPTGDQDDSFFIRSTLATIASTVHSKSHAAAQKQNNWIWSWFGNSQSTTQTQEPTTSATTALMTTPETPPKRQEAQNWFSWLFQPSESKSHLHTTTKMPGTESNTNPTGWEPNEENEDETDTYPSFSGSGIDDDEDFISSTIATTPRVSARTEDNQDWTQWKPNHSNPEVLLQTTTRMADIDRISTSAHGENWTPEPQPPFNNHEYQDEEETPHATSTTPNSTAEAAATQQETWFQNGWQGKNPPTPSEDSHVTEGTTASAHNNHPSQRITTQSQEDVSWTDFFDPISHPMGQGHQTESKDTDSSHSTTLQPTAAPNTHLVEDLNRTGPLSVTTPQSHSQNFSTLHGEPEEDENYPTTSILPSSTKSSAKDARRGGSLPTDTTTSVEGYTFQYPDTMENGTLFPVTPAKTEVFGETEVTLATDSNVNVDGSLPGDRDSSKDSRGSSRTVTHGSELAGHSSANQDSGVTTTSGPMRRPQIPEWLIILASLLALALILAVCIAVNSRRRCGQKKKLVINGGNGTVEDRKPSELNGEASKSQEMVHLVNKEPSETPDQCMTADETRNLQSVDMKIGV
cell surface-associated CD44 of IS-CD8+ T cells, sequence (P15379 23-778): as above

Compound: O=P(O)(O)C(Cl)(Cl)P(=O)(O)O [Clodronate]
- expression of MT1-MMP protein and messenger RNA (MT1-MMP [1]): inhibited

Compound: CNC(=O)[C@H](Cc1c[nH]c2ccccc12)NC(=O)[C@@H](CC(=O)NO)CC(C)C [GM6001]
- shedding of CD44 in adherent cells [2]: blocked
- effect on MT1-MMP-CAT cleavage of cellular CD44 (CD44): reversed the effect of MT1-MMP-CAT
- activation of MMP-2 in adherent cells (MT1-MMP [3]): blocked

Compound: MMP-2 (as incubated with α1-antitrypsin)
- cleavage of α1-antitrypsin in vitro, reducing SDS-gel electrophoresis (α1-antitrypsin): the MMP-2 proteolysis of α1-antitrypsin (a sensitive and readily available protein substrate of MMPs) and converting this 61 kDa serpin into a 55 kDa degradation fragment

Compound: CC(C)[C@H](NS(=O)(=O)c1ccc(-c2ccc(Br)cc2)cc1)C(=O)O [PD166793, (S)-2-(4′-bromo-biphenyl-4-sulfonylamino)-3-methyl-butyric acid]
- EC50 (MMP-7 [4]): 7.2 µM
- β cell mass [5]: preserved β cell mass
- EC50 (MT1-MMP [6]): 0.24 µM
- EC50 (MMP-9 [7]): 7.9 µM

Compound: catalytic domain of MT1-MMP (MT1-MMP-CAT) (enzyme)
- homing of DiI-labeled IS-CD8+ cells into the pancreatic islets of NOD mice, 24 h [8]: 4.5 fold

Compound: cell surface-associated MT1-MMP of IS-CD8+ T cells
- release of CD44 proteolytic fragments into medium, Western blotting [9]: release of the CD44 proteolytic fragments into medium was detected only in adherent IS-CD8^+ cells

Compound: CNC(=O)[C@H](Cc1ccccc1)NC(=O)[C@H](CC(C)C)[C@H](CSc1cccs1)C(=O)NO [Batimastat]
- IC50 (MMP-9 [10]; read-out: IC50 for MMP-9 inhibition): < 0.0209 µM
- IC50 (MMP-7 [11]): < 0.0209 µM

Compound: O=C(C[C@H](CSc1ccccc1)C(=O)O)c1ccc(-c2ccc(Cl)cc2)cc1 [BAY 12-9566]
- IC50 for MMP-9 inhibition (MMP-9 [10]): below 0.13 μg/mL
- IC50 for MMP-2 inhibition (MMP-2): below 0.13 μg/mL
- time to peak plasma concentrations after dosing ([12]; after oral administration): 0.5 to 2 h
- linearity of pharmacokinetics ([12]; normal volunteers, doses of up to 100 mg/day): linear
- effect of repeated administration on clearance ([12]; repeated administration): increased clearance
